# Data as given in patent EP0855398B1, “SESQUITERPENE DERIVATIVES HAVING ANTIVIRAL ACTIVITY” (SHIONOGI & CO., LTD., priority 1995, dated 1997).
# Read-outs that look alike come from different tables or passages of the source.
# Tests used:
# A/91/N796 (H3N2) = experiment: Anti-viral activities against subtypes of influenza A and B (plaque number); format: cell-based; conditions: Influenza A virus, 72 h
# B/91N759 = experiment: as above; format: cell-based; conditions: Influenza B virus, 72 h
# A/Osaka/5/70 (H3N2) = experiment: as above; format: cell-based; conditions: Influenza A virus, 72 h
# A/WSN/33 (H1N1) = experiment: as above; format: cell-based; conditions: Influenza A virus, 72 h
# A/Kumamoto/5/67 (H2N2) = experiment: microbe, parasite or virus in culture; format: cell-based; conditions: Influenza A virus, H2N2, MDCK, 72 h
# [1] = Cytotoxicity for MDCK cells; format: cell-based; conditions: dog, Cell: MDCK, no virus
# Method: As in the measurement of anti-viral activity, samples were added to the cells, and incubated with 50 µl of culture medium instead of the viral dilution. The results are expressed as CC50 which is defined as the concentration of the compound at which 50% of the cells are killed due to the toxicity of the compound.
# MDCK cells (derived from dog kidney) were cultured on 12-well plates using E-MEM supplemented by 10% fetal bovine serum. To each well was added 250 µl each of a viral dilution prepared by 10-fold serial dilution with E-MEM, followed by incubation for one hour under 5% CO2 at 37 °C. After removal of the viral solution, one ml of E-MEM containing 0.8% agarose, 0.5% bovine serum albumin and 2 µg/ml trypsin, and an appropriately diluted test compound was added. The plate was inverted, and incubated for 3 days under 5% CO2 at 37 °C. The number of plaques formed was counted, and the IC50 value, which is the concentration of the compound at which the number of plaques decreases by 50% compared to that of control which lacks the test compound, was determined. As in the above section 2), CC50 values for MDCK cells were determined.
# MDBK cells = conditions: Cell: MDBK, no virus; concentration at which 50% of the cells are killed; 4320 min
# [2] = system: Influenza virus A/WSN/33 (H1N1); experiment: microbe, parasite or virus in culture; format: cell-based
# influenza A and B = conditions: administered orally or intraperitoneally; cited from earlier work
# in vitro = conditions: bovine
# [3] = viral strain: Influenza virus A/WSN/33 (H1N1), Cell: MDBK, […], 3 days
# [4] = (4): A/91/N796 (H3N2), Cell: MDCK, number of plaques decreases by 50%, 3 days, read-out: IC50
# [5] = (5): B/91N759, Cell: MDCK, number of plaques decreases by 50%, 3 days, read-out: IC50
# [6] = (3): A/Osaka/5/70 (H3N2), Cell: MDCK, number of plaques decreases by 50%, 3 days, read-out: IC50
# [7] = (1): A/WSN/33 (H1N1), Cell: MDCK, number of plaques decreases by 50%, 3 days, read-out: IC50
structure (smiles),measurement,setting,value
"C[C@H]1CC[C@H]2C(C)(C)[C@@H](O)CC[C@]23Oc2c(c(O)cc4c2CNC4=O)C[C@]13C [SQ-02-S5(2), (6a R, 7S, 9a S, 11 S, 13a S)-2,3,6,6a, 7,8,9,9a, 10, 11, 12, 13-dodecahydro-5, 11-dihydroxy-6a, 7, 10, 10-tetramethyl-3-oxo-1H-benzo[8,8a][1]benzopyrano[2,3-e]isoindole]",IC50,"A/91/N796 (H3N2); H3N2, MDCK",1 mg/L
same,IC50,B/91N759; MDCK,1 mg/L
same,IC50,"A/Osaka/5/70 (H3N2); H3N2, MDCK",0.1 to 1 mg/L
same,IC50,A/WSN/33 (H1N1); MDCK,0.001 to 0.01 mg/L
same,IC50,A/Kumamoto/5/67 (H2N2),0.1 to 1 mg/L
same,CC50 at 3 days,[1],25 mg/L
"CC(=O)O[C@@H]1C(=O)C[C@@]23Oc4c(c(O)cc5c4CNC5=O)C[C@]2(C)[C@@H](C)CC[C@H]3C1(C)C [Compound (53a), (6aR, 7S, 9aS, 11S, 13aS)-11-acetoxy-2,3,6,6a, 7,8,9,9a, 10 11, 12, 13-dodecahydro-5-hydroxy-6a, 7, 10, 10-tetramethyl-3,12-dioxo-1H-benzo[8,8a][1]benzopyrano[2,3-e]isoindole]",CC50,MDBK cells,>10 mg/L
same,IC50,[2]; [3],0.04 to 0.08 mg/L
C[C@H]1CC[C@H]2C(C)(C)C(=O)CC[C@]23Oc2c(c(O)cc4c2CNC4=O)C[C@]13C [SQ-02-S5-OX2(12)],IC50,A/91/N796 (H3N2); [4],1 mg/L
same,IC50,B/91N759; [5],0.1 to 1 mg/L
same,IC50,A/Osaka/5/70 (H3N2); [6],1 to 10 mg/L
same,IC50,A/WSN/33 (H1N1); [7],0.001 to 0.01 mg/L
same,IC50,A/Kumamoto/5/67 (H2N2),0.01 to 0.1 mg/L
same,CC50,[1],25 to 50 mg/L
C[C@H]1CC[C@H]2C(C)(C)C(=O)CC[C@]23Oc2c(c(O)cc4c2C(=O)NC4=O)C[C@]13C [SQ-02-S5-OX1(11)],IC50,A/91/N796 (H3N2); [4],1 mg/L
same,IC50,B/91N759; [5],0.1 mg/L
same,IC50,A/Osaka/5/70 (H3N2); [6],0.1 to 1 mg/L
same,IC50,A/WSN/33 (H1N1); [7],0.001 to 0.01 mg/L
same,IC50,A/Kumamoto/5/67 (H2N2),0.01 to 0.1 mg/L
same,CC50,[1],25 to 30 mg/L
CC(=O)N[C@H]1[C@H]([C@H](O)[C@H](O)CO)OC(C(=O)O)=C[C@@H]1NC(=N)N [4-guanidino-Neu5Ac2en],activity against influenza A and B,influenza A and B,has not a satisfactory activity
"CCOC(=O)C=CC(=O)Nc1ccc(S(=O)(=O)O[C@H]2C[C@@]34Oc5c(c(O)cc6c5CNC6=O)C[C@]3(C)[C@@H](C)CC[C@H]4C(C)(C)[C@H]2O)cc1 [Compound (50f), (6aR, 7S, 9aS, 11R, 12S, 13aS)-12-[4-(3-ethoxycarbonyl-1-oxo-2-propenyl)amino] phenylsulfonyloxy-2,3,6,6a, 7,8,9,9a, 10, 11, 12, 13-dodecahydro-5, 11-dihydroxy-6a, 7, 10, 10-tetramethyl-3-oxo-1H-benzo[8,8a][1]benzopyrano[2,3-e]isoindole]",CC50,MDBK cells,5 mg/L
same,IC50,[2]; [3],0.01 mg/L
"C[C@H]1CC[C@H]2C(C)(C)[C@H](OS(C)(=O)=O)CC[C@]23Oc2c(c(O)cc4c2CNC4=O)C[C@]13C [Compound (13b), (6a R, 7 S, 9a S, 11 R, 13a S)-2,3,6,6a, 7,8,9,9a, 10, 11, 12, 13-dodecahydro-5-hydroxy-6a, 7, 10, 10-tetramethyl-11-methanesulfonyloxy-3-oxo-1H-benzo[8,8a][1]benzopyrano[2,3-e]isoindole]",IC50,"[2]; 72 h, viral strain: Influenza virus A/WSN/33 (H1N1), Cell: MDBK, […], 3 days, read-out: IC50",0.02 mg/L
same,CC50,in vitro,5 mg/L
"C[C@H]1CC[C@H]2C(C)(C)C(=NO)CC[C@]23Oc2c(c(OP(=O)(O)O)cc4c2CNC4=O)C[C@]13C.[Na] [Compound (64), (6aR, 7S, 9aS, 13aS)-2,3,6,6a, 7,8,9,9a, 10, 11, 12, 13-dodecahydro-11-hydroxyimino-5-dihydroxyphosphinyloxy-6a, 7, 10, 10-tetramethyl-3-oxo 1H-benzo[8,8a][1]benzopyrano[2,3-e]isoindole monosodium salt]",IC50,"[2]; H1N1|WSN, MDBK, 72 h",0.001 mg/L
same,CC50,in vitro,> 10 mg/L
